Paper PMC12765108, “Establishing selectivity of FAK-paxillin PPI inhibitor using pulldown proteomics and a focal adhesion protein selectivity panel” (Biochemistry and Biophysics Reports, 2025)
Entries after “also recorded” stand apart in the source; their conditions may differ.

How the values were obtained:
Paxillin = experiment: Pulldown (MS and WB), SK-MEL-147 lysate; assay type: binding
Procedure: 3000ug of SK-MEL-147 lysates were precleared in 60uL agarose beads for 1 h at 4C. […] Beads were washed with NP40 buffer without inhibitors and proteins were eluted using 63 mM Tris pH 6.8 and 5 % SDS. Elution proteins underwent trypsin digestion and were analyzed in nanoLC-MS/MS at the UA Biological Mass Spectroscopy Core using the Thermo Q Exactive Orbitrap mass spectrometer (MS) coupled to the Thermo Vanquish Neo nano-LC system. Peptide sequences were determined, correlated to SwissProt protein sequences, and normalized in Scaffold Proteomics Discoverer.
Protein Label Free Quantification (LFQ) was represented by Normalized Total Spectra. Fold Enrichment (FE) was calculated using Eq. (1): FE=(PulldownLFQ−EthanolamineControlBeadLFQ)/TotalLysateLFQ
Bead elutions were ran on a 4–20 % TGX Stain Free Gel and imaged via Stain Free Imaging (ChemDoc Biorad Imager) before transfer onto a PVDF membrane (TurboTransfer High MW). Blots were blocked using 5 % BSA in TBS-0.1 % Tween-20. Each primary antibody was used in 1:1000 dilution and incubated overnight at 4C. Blots were washed 3X and incubated in 1:5000 secondary antibody at RT for 1 h. Blots were incubated with ECL reagent (Biorad) for 5 min. Blots were imaged utilizing ChemDoc Biorad Imager for 3 min taking 60 total images. Results can be found in Supplementary Fig. 2.

[1] = tested on: FA selectivity panel (VinT, VinH, PARVA, PARVB, Talin-1 Rod 8, FAK FAT); experiment: SPR focal adhesion selectivity panel; assay type: binding
Text: (§1) Vinculin Tail (VinT) (a.a. 811–1066), Vinculin Head (VinH) (a.a. 1–258), Actopaxin, (PARVA complete protein), beta-parvin (PARVB, total protein), FAK FAT (a.a. 892–1052), and Talin-1 Rod 8 (a.a. 1453–1580) were purified in E. coli BL21 DE3 using 6X-Histag TOPO-100 plasmid constructs with AmpR gene (ThermoFisher). Purification procedures were as previously described. Proteins were purified using NiNTA affinity chromatography (ThermoFisher) followed by size-exclusion chromatography using the Akta Pump 900 system and HiLoad 26/600 SuperDex 75 pg column. Major peaks (Unicorn 3.0 software) were validated using SDS-PAGE stain free imaging (Biorad).
SPR was performed on a Sartorius Pioneer FE instrument as previously described. Briefly, biotinylated UA-1907 was immobilized onto Streptavidin Dextran Hydrogel (SADH) biosensor at a RU = 50. Proteins were flowed over at 75 μL/min in running buffer (50 mM Tris pH 8.0, 200 mM NaCl, 5 % glycerol) from 2.5 μM to 4.9 nM. Equilibrium dissociation constant (KD) was calculated using Qdat software and 1:1 kinetic binding model.

FAK FAT (a.a. 892–1052) = target: T1, FAK FAT (a.a. 892–1052) (Homo sapiens, UniProt Q05397); experiment: SPR direct binding; conditions: 4.9 nM to […]
T1 construct: FAK FAT (a.a. 892–1052); 6X His (N); made in house; host or cells: E. coli BL21 DE3
T1 sequence (Q05397 892-1052): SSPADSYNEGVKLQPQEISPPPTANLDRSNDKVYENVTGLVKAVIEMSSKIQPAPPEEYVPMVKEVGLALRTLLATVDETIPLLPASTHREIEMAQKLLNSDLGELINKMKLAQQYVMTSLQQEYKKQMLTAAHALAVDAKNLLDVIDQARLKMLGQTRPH
Text: as §1
SPR was performed on a Sartorius Pioneer FE instrument as previously described. Briefly, biotinylated UA-1907 was immobilized onto Streptavidin Dextran Hydrogel (SADH) biosensor at a RU = 50. […] Equilibrium dissociation constant (KD) was calculated using Qdat software and 1:1 kinetic binding model.

FAK-paxillin interaction = conditions: cellular and biochemical systems; ref [5]; cited from earlier work
FAK FAT domain = tested on: FAK FAT domain; design: method as in PMID 40021642; conditions: ref [5]; cited from earlier work
[2] = ref [5]; cited from earlier work
Text: (§2) The most significant finding in this manuscript is the nanomolar, highly specific affinity (Fig. 4g) between UA-1907 and the FAK FAT domain by SPR, but not […], PARVA, PARVB, VinH, and VinT. As previously discussed, the challenge of targeting FAK historically has been the off-target effects of ATP-competitive kinase inhibitors. […] The high selectivity of the FAT domain t ...

kinome = conditions: ref [5]; cited from earlier work
Text: as §2

## CC(=O)N[C@@H](CC(N)=O)C(=O)N[C@@H](CC(C)C)C(=O)N[C@]1(C)CCCCCC/C=C/CCC[C@@](C)(C(=O)N[C@@H](CCC(=O)O)C(=O)N[C@@H](CC(C)C)C(=O)N[C@@H](CC(N)=O)C(N)=O)NC(=O)[C@H](CC(C)C)NC(=O)[C@H](CC(C)C)NC(=O)[C@H](CCCNC(=N)N)NC(=O)[C@H](CC(=O)O)NC(=O)[C@H](CC(C)C)NC(=O)[C@H](CCC(=O)O)NC1=O [UA-1907]
Paxillin
  paxillin pulldown: paxillin did not pulldown with UA-1907
[1]
  binding selectivity across panel: only the FAK-FAT domain has a nanomolar binding affinity (KD) for UA-1907, whereas other FA proteins have no binding; also recorded: strong nanomolar binding affinity to the FAT domain of FAK, while minimal affinity to other FA proteins
FAK FAT (a.a. 892–1052)
  binding: bound to UA-1907 in a dose-dependent manner
FAK-paxillin interaction
  inhibition of FAK-paxillin interaction: dose-dependently inhibits the FAK-paxillin interaction
FAK FAT domain
  binding to FAK FAT domain: binds the FAK FAT domain with high affinity

## CNC(=O)c1ccc(Nc2ncc(C(F)(F)F)c(NCc3nccnc3N(C)S(C)(=O)=O)n2)cc1 [defactinib]
[2]
  cellular toxicity: high cellular toxicity
kinome
  kinome selectivity: poor kinome selectivity
